In the NIST ThermoML archive (doi:10.1016/j.fluid.2013.01.017):
± gives the expanded uncertainty stated by the source.

Conditions: Liquid, Closed cell (Static) method

## FC(F)(F)C(F)(F)C(F)(F)C(F)(F)C(F)(F)C(F)(F)C(F)(F)C(F)(F)F [octadecafluorooctane]
308.45 K
  vapor or sublimation pressure: 6.1 ± 12 kPa
318.42 K
  vapor or sublimation pressure: 10.1 ± 12 kPa
323.48 K
  vapor or sublimation pressure: 12.8 ± 12 kPa
328.48 K
  vapor or sublimation pressure: 16 ± 12 kPa
338.43 K
  vapor or sublimation pressure: 24.3 ± 12 kPa
